From patent publication EP0745083B1, “2-HETEROARYL-5,11-DIHYDRO-6H-DIPYRIDO [3,2-b:2',3'-e][1,4]DIAZEPINES AND THEIR USE IN THE PREVENTION OR TREATMENT OF HIV INFECTION” (BOEHRINGER INGELHEIM PHARMACEUTICALS INC., priority 1994, dated 1995) come the findings set out here.

The term pIC50 denotes the IC50 on a negative log10 scale, so that one unit is a factor of ten. A high value points to a small IC50. By inhibition is commonly meant the percentage by which the read-out fell short of the control.

In one experiment the target is T1, HIV-1 RT Y188L (Human immunodeficiency virus type 1 group M subtype B, UniProt P03367, Y787L).
T1 construct: effective against the reverse transcriptase of many mutant viruses; made in house
As to the kind of experiment: Reverse Transcriptase (RT) Assay, Y188L mutant enzyme. To be noted: 1 µM compound. The class given is biochemical, Human Immunodeficiency Virus (HIV-1).

In experiment [1] the test system is HTLV-IIIB strain of HIV-1. As to the kind of experiment: Syncytia (human T-cell culture) assay. The format is cell-based. To be noted: Human immunodeficiency virus 1, IIIB, 96 h; c8166 cells; read four days after virus challenge. As to the method:
In order to confirm that compounds which are active in the RT Assay also have the ability to inhibit HIV replication in a living system, compounds according to the invention were also tested in the human T-Cell Culture (Syncytia) Assay described below.
Formation of syncytia is a feature of in vitro cultures of CD4+ T-cells infected with HIV-1. In this assay, T-cells are treated with a putative replication inhibiting compound and then infected with HIV-1. After incubation, the culture is checked for the formation of syncytia. The absence or reduction in the number of syncytia is used as a measure of the test compound's ability to inhibit HIV replication.
The target cells, designated c8166, are a subclone of human lymphoma cells of T-cell origin and are established at an initial density of 5x10^4 per 100 ul in RPMI 1640 (+ 10% fetal bovine serum) culture medium in 96 well flat bottom plates. A selected amount of test compound, dissolved in DMSO, is included. After 24 hours, 50-100 TCID50's (the dose that results in induced effect in 50% of test cultures) of the HTLV-IIIB strain of HIV-1 (2) are inoculated into each culture. Control cultures receive compound or virus only. Four days after virus challenge, cultures are visually examined for the frequency and distribution of virus-induced giant cell syncytia. The percent inhibition by the test compound is determined by comparison with control values. Confirmation of the presence or absence of virus replication is accomplished by harvesting the cell free culture fluids from all experimental groups to determine the presence or absence of infectious progeny through the induction of syncytia formation in secondary human T-cell cultures after 3 days.

The target of the next experiment is T2, HIV-1 RT Y181C (Human immunodeficiency virus type 1 group M subtype B, UniProt P03367, Y780C).
T2 construct: Utilization of mutant RT eraymes (Y181C and Y181L, prepared by site-directed mutagenesis); made in house
As to the kind of experiment: Reverse Transcriptase (RT) Assay, Y181C mutant enzyme. The class given is biochemical, Human Immunodeficiency Virus (HIV-1). Particulars: 1 µM compound, read-out: Reverse Transciptase Assay % inhibition (1 µM) Y181C.

pIC50: −log10 of the molar value.

For `CCN1c2ncccc2C(=O)N(C)c2ccc(-c3cn[nH]c3)nc21` [Example 1, 5,11-Dihydro-11-ethyl-5-methyl-2-(4-pyrazolyl)-6H-dipyrido[3,2-b:2'3'-e][1,4]diazepin-6-one], the “Reverse Transciptase Assay % inhibition (1 µM) Y188L” value on HIV-1 RT Y188L (1 µM) was 77%. In addition, in experiment [1], the negative-log IC50 (pIC50) is 7.40. In addition, the inhibition at 1 µM on HIV-1 RT Y181C is 96%.
For the compound `CN1C(=O)c2cccnc2N(C2CC2)c2nc(-c3cn[nH]c3)ccc21` [Example 6, 5,11-Dihydro-5-methyl-11-c-propyl-2-(4-pyrazolyl)-6H-dipyrido[3,2-b:2',3'-e][1,4]diazepin-6-one], the “Reverse Transciptase Assay % inhibition (1 µM) Y188L” value at HIV-1 RT Y188L is listed as 84%. This compound had a pIC50 in experiment [1] of 8.00. Also, the inhibition at 1 µM at HIV-1 RT Y181C came out at 87%.
Take `CCN1c2ncccc2C(=O)N(C)c2ccc(-c3cc[nH]c3)nc21` [Example 12, 5,11-Dihydro-11-ethyl-5-methyl-2-(3-pyrrolyl)-6H-dipyrido[3,2-b:2',3'-e][1,4]diazepin-6-one]: in experiment [1], the pIC50 was 7.40. The inhibition at 1 µM at HIV-1 RT Y181C came out at 91%.
In the case of `CN1C(=O)c2cccnc2N(C2CC2)c2nc(-c3cc[nH]c3)ccc21` [Example 25, 11-Cyclopropyl-5,11-dihydro-5-methyl-2-(3-pyrrolyl)-6H-dipyrido[3,2-b:2',3'-e][1,4]diazepin-6-one], the “Reverse Transciptase Assay % inhibition (1 µM) Y188L” value on HIV-1 RT Y188L is listed as 80%. Further, the negative logarithm of the IC50 (pIC50) in experiment [1] is 4.10. Besides, the inhibition at 1 µM on HIV-1 RT Y181C came to 86%.
